Data reported in the supplement of paper PMC10307832.

Legend:
Assay in all cases: relative viability (nuclei count vs DMSO), 5 days (fraction); higher = more cells survive
Bromopyruvate + OSI-027 = compound: C(C(=O)C(=O)O)Br [Bromopyruvate] + COc1cccc2cc(-c3nc([C@H]4CC[C@H](C(=O)O)CC4)n4ncnc(N)c34)[nH]c12 [OSI-027] (partner 0.5 µM)
How it was run: (§1)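 Lung cancer cell lines in 1536-well plates got either a single drug or a fixed anchor-drug dose together with five library-drug doses (not always all listed) in √10 steps, by pin tool, on the day after seeding. Nuclei were counted after 5 days, and relative viability is the treated-to-vehicle ratio of nuclei counts. Values are medians of duplicate plates.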

[1] = compound: C(C(=O)C(=O)O)Br [Bromopyruvate] + C[C@@H](Oc1cc(-c2cnn(C3CCNCC3)c2)cnc1N)c1c(Cl)ccc(F)c1Cl [Crizotinib] (partner 1 µM)
How it was run: as §1

[2] = compound: C(C(=O)C(=O)O)Br [Bromopyruvate] + Nc1ncn([C@H]2C[C@H](O)[C@@H](CO)O2)c(=O)n1 [Decitabine] (partner 2 µM)
How it was run: as §1

Bicalutamide + OSI-027 = compound: CC(O)(CS(=O)(=O)c1ccc(F)cc1)C(=O)Nc1ccc(C#N)c(C(F)(F)F)c1 [Bicalutamide] + COc1cccc2cc(-c3nc([C@H]4CC[C@H](C(=O)O)CC4)n4ncnc(N)c34)[nH]c12 [OSI-027] (partner 0.5 µM)
How it was run: as §1

| Cell Line | relative viability (Bromopyruvate + OSI-027; first compound 1 µM) | relative viability (Bromopyruvate + OSI-027; first compound 3.162 µM) | relative viability (Bromopyruvate + OSI-027; first compound 10 µM) | relative viability (Bromopyruvate + OSI-027; first compound 31.62 µM) | relative viability (Bromopyruvate + OSI-027; first compound 100 µM) | relative viability ([1]; first compound 1 µM) | relative viability ([1]; first compound 3.162 µM) | relative viability ([1]; first compound 10 µM) | relative viability ([1]; first compound 31.62 µM) | relative viability ([1]; first compound 100 µM) | relative viability ([2]; first compound 1 µM) | relative viability ([2]; first compound 3.162 µM) | relative viability ([2]; first compound 10 µM) | relative viability ([2]; first compound 31.62 µM) | relative viability ([2]; first compound 100 µM) | relative viability (Bicalutamide + OSI-027; first compound 0.08 µM) | relative viability (Bicalutamide + OSI-027; first compound 0.253 µM) | relative viability (Bicalutamide + OSI-027; first compound 0.8 µM) | relative viability (Bicalutamide + OSI-027; first compound 2.53 µM) |
| --- | --- | --- | --- | --- | --- | --- | --- | --- | --- | --- | --- | --- | --- | --- | --- | --- | --- | --- | --- |
| HCC-15 | 0.711 | 0.779 | 0.781 | 0.715 | 0.654 | 0.823 | 0.898 | 0.793 | 0.817 | 0.905 | 0.614 | 0.625 | 0.615 | 0.659 | 0.568 | 0.71 | 0.612 | 0.908 | 0.571 |
| ABC-1 | 0.425 | 0.471 | 0.513 | 0.521 | 0.548 | 1.47 | 1.13 |  | 1.05 | 0.636 | 0.888 |  |  |  | 0.885 | 0.46 | 0.448 | 0.45 | 0.454 |
| LCLC-103H | 0.408 | 0.487 | 0.528 | 0.451 | 0.494 | 1.02 | 1.06 | 1.05 | 1.14 | 1.2 | 0.757 | 0.764 | 0.797 | 0.77 | 0.825 | 0.464 | 0.425 | 0.476 | 0.451 |
| NCI-H460 | 0.588 | 0.82 | 0.91 | 0.661 | 0.728 | 0.771 | 0.921 | 1.09 | 0.919 | 0.714 | 0.484 | 0.459 | 0.679 | 0.46 | 0.468 | 0.772 | 0.601 | 1.04 | 0.545 |
| EPLC-272H | 0.245 | 0.244 | 0.359 | 0.251 | 0.301 | 0.773 | 0.996 | 0.999 | 0.92 | 0.911 | 0.371 | 0.376 | 0.426 | 0.437 | 0.389 | 0.314 | 0.34 | 0.325 | 0.243 |
